± gives the expanded uncertainty stated by the source.
Tests used:
[1] = Liquid; for Critical pressure: Direct measurement; for Critical temperature: Visual observation in an unstirred cell
[2] = xn = mol fraction of the nth substance listed; conditions: Liquid

Structure (SMILES): FC(C(F)(F)F)C(F)(F)F [1,1,1,2,3,3,3-heptafluoropropane]
- Critical density [1]: 598 ± 14 kg/m3
- Critical pressure [1]: 2930 ± 12 kPa
- Critical temperature [1]: 375 ± 0.16 K

Structure (SMILES): FC(C(F)(F)F)C(F)(F)F [1,1,1,2,3,3,3-heptafluoropropane] + COC(F)(F)F
- Critical density ([2]; x2 = 0): 598 ± 14 kg/m3

Structure (SMILES): FC(F)C(F)C(F)(F)F (stereo not drawn) [1,1,1,2,3,3-hexafluoropropane]
- Critical density [1]: 562 ± 13 kg/m3
- Critical pressure [1]: 3416 ± 12 kPa
- Critical temperature [1]: 412.41 ± 0.16 K

Structure (SMILES): FC(F)C(F)C(F)(F)F (stereo not drawn) [1,1,1,2,3,3-hexafluoropropane] + COC(F)(F)F
- Critical density ([2]; x2 = 0): 562 ± 13 kg/m3
- Critical density ([2]; x2 = 0.2452): 545 ± 13 kg/m3
- Critical density ([2]; x2 = 0.3348): 541 ± 13 kg/m3
- Critical density ([2]; x2 = 0.5434): 518 ± 12 kg/m3
- Critical density ([2]; x2 = 0.7338): 497 ± 12 kg/m3
- Critical density ([2]; x2 = 0.8497): 476 ± 11 kg/m3

Structure (SMILES): FCC(F)(F)F [1,1,1,2-tetrafluoroethane]
- Critical density [1]: 508 ± 12 kg/m3
- Critical pressure [1]: 4053 ± 12 kPa
- Critical temperature [1]: 374.13 ± 0.16 K

Structure (SMILES): FCC(F)(F)F [1,1,1,2-tetrafluoroethane] + COC(F)(F)F
- Critical density ([2]; x2 = 0): 508 ± 12 kg/m3

Structure (SMILES): FC(F)C(F)(F)F [pentafluoroethane]
- Critical density [1]: 560 ± 13 kg/m3
- Critical pressure [1]: 3617 ± 12 kPa
- Critical temperature [1]: 339.2 ± 0.16 K

Structure (SMILES): FC(F)C(F)(F)F [pentafluoroethane] + COC(F)(F)F
- Critical density ([2]; x2 = 0): 560 ± 13 kg/m3

Structure (SMILES): COC(F)(F)F [trifluoromethoxymethane]
- Critical density [1]: 459 ± 11 kg/m3
- Critical pressure [1]: 3640 ± 12 kPa
- Critical temperature [1]: 377.92 ± 0.16 K

Structure (SMILES): COC(F)(F)F [trifluoromethoxymethane] + FC(C(F)(F)F)C(F)(F)F
- Critical density ([2]; x1 = 0.1647): 574 ± 13 kg/m3
- Critical density ([2]; x1 = 0.3999): 543 ± 13 kg/m3
- Critical density ([2]; x1 = 0.4999): 526 ± 12 kg/m3
- Critical density ([2]; x1 = 0.6664): 508 ± 12 kg/m3
- Critical density ([2]; x1 = 0.8165): 486 ± 11 kg/m3
- Critical density ([2]; x1 = 1): 459 ± 11 kg/m3

Structure (SMILES): COC(F)(F)F [trifluoromethoxymethane] + FC(F)C(F)(F)F
- Critical density ([2]; x1 = 0.1859): 555 ± 13 kg/m3
- Critical density ([2]; x1 = 0.3073): 523 ± 12 kg/m3
- Critical density ([2]; x1 = 0.5185): 515 ± 12 kg/m3
- Critical density ([2]; x1 = 0.7094): 491 ± 11 kg/m3
- Critical density ([2]; x1 = 0.8305): 479 ± 11 kg/m3
- Critical density ([2]; x1 = 1): 459 ± 11 kg/m3

Structure (SMILES): COC(F)(F)F [trifluoromethoxymethane] + FC(F)C(F)C(F)(F)F
- Critical density ([2]; x1 = 1): 459 ± 11 kg/m3

Structure (SMILES): COC(F)(F)F [trifluoromethoxymethane] + FCC(F)(F)F
- Critical density ([2]; x1 = 0.1649): 508 ± 12 kg/m3
- Critical density ([2]; x1 = 0.2914): 492 ± 11 kg/m3
- Critical density ([2]; x1 = 0.4897): 486 ± 11 kg/m3
- Critical density ([2]; x1 = 0.6543): 480 ± 11 kg/m3
- Critical density ([2]; x1 = 0.8151): 468 ± 11 kg/m3
- Critical density ([2]; x1 = 1): 459 ± 11 kg/m3

Source: the NIST ThermoML archive (doi:10.1021/je0499723)
